Experimental data taken from patent US20100130457A1, “Phenothiazine Derivatives for Treatment of Asthma” (Immune Control, Inc., priority 2008, published 2010).
Entries after “also recorded” stand apart in the source; their conditions may differ. Where two headings read alike, the source gives them in different places.

Tests used:
human small airway = test: Human precision-cut lung slices (PCLS), small airway contraction
Experimental: Human precision-cut lung slices (PCLS) permit evaluation of pharmacological responses of novel drug candidates applied directly to their target tissue.
Human precision-cut lung slices (PCLS, 250 μm thick) containing a small airway were contracted to carbachol, histamine and passively sensitization to induce airway closure±pre-incubation with ICI-735 (10 μM; 2 hours); FIG. 13. For example, human lung slices containing a small airway were incubated overnight with either negative control IgG (4 μg/mL) or positive control IgE (4 μg/mL). The slices were tested as follows: 1) IgG+anti-IgE; 2) IgE+anti-IgE; 3) IgE+Dexamethasone (1 μM)+anti-IgE; and 4) IgE+ICI-735 (10 μM) +anti-IgE. Dexamethasone and ICI-735 were pre-incubated 2 hours prior to anti-IgE; anti-IgE is used to crosslink antibodies and induce mast cell degranulation, which is believed to release histamine and cause airway contract. […]
Human lung tissue contains multiple cell types, including mast cells, that localize in the region of airway smooth muscle, and that increase in number in individuals with asthma. Cross-linking of Fcε;R1 receptors on surfaces of mast cells leads to release of granules that contain smooth muscle contractile agonists, including histamine and leukotrienes.
To test C-027 as a blocker of histamine-induced bronchoconstriction, lung slices were incubated for 2 hours with C-027, and small airway contraction was evaluated after addition of increasing concentrations of histamine.

MPR1-MDCK = MPR1-MDCK permeability, potential to cross the blood-brain barrier; type: in vitro ADME; conditions: for % Recovery A-B / Papp A-B: A-B direction; for % Recovery B-A / Papp B-A: B-A direction; for Efflux: efflux ratio; for Brain Penetration Classification: from A-B Papp and efflux ratio
From the text: (§1) A criterion for selecting an agent for proceeding to clinical trials is whether the compound crosses the blood-brain barrier. […] Fluphenazine (ICI-01175) is used as a control compound that has the potential to cross the blood-brain barrier. Table 1 summarizes the results of the test compounds for their potential to cross the blood-brain barrier.

RPMI 8226 = test: Inhibition of proliferation of RPMI 8226 cells; type: cell-based, human; conditions: RPMI cells in vitro
From the text: The next set of experiments was designed to assess compounds that have low levels of brain penetration for the ability of the test compounds to inhibit cellular proliferation. An exemplary in vitro assay is to screen for the ability of the test compounds to inhibit proliferation of the B-cell neoplastic cell line RPMI 8226 (a plasmacytoma derived from a multiple myeloma patient (Matsuoka, et al., 1967, Proc. Soc. Exp. Biol. Med. 125: 1246-1250). However other cell line can be used such as, U266 (established from an IgE-secreting myeloma patient (Nilsson, et al., 1970, Clin. Exp. Immunol., 7: 477-489) and ARH77 (an EBV transformed plasma cell leukemia (Burk, et al., 1978, Cancer Res. 38: 2508-2513).
FIG. 1 is a graph depicting the effects on the test compounds on RPMI cell viability.

[1] = MPR1-MDCK permeability, potential to cross the blood-brain barrier; type: in vitro ADME; conditions: dog, MDCK
From the text: as §1

SMILES	% Recovery A-B (MPR1-MDCK)	Papp A-B (MPR1-MDCK)	% Recovery B-A (MPR1-MDCK)	Papp B-A (MPR1-MDCK)	Efflux (MPR1-MDCK)	Brain Penetration Classification (MPR1-MDCK)	also measured
C[N+](C)(C)CCOC(N)=O [Carbachol, reference compound]							bronchoconstriction (human small airway; 10^−8 to 10^−5 M, dose-dependent): up to 70%
C[C@@H]1C[C@H]2[C@@H]3CCC4=CC(=O)C=C[C@]4(C)[C@@]3(F)[C@@H](O)C[C@]2(C)[C@@]1(O)C(=O)CO [Dexamethasone, reference compound]							airway contraction to IgE/anti-IgE (passive sensitization, mast cell degranulation) (human small airway; ICI-735 10 μM, dexamethasone 1 μM, pre-incubated 2 hours): no effect
FC(F)(F)c1ccc2c(c1)N(CCCN1CCNCC1)c1ccccc1S2 [ICI-00685]	17%	0.66 ×10⁻⁶ cm/s	15%	4.47 ×10⁻⁶ cm/s	6.8	Low (A-B Papp > 3.0 and Efflux Ratio > 10: Low)	
CN(C)S(=O)(=O)c1ccc2c(c1)N(CCCN1CCN(CCN)CC1)c1ccccc1S2 [ICI-00715]	85%	0.08 ×10⁻⁶ cm/s	77%	12.3 ×10⁻⁶ cm/s	154	Low (A-B Papp > 3.0 and Efflux Ratio > 10: Low)	ability to inhibit proliferation of RPMI cells (RPMI 8226): able to inhibit
CN(C)CCN1CCN(CCCN2c3ccccc3Sc3ccc(C(F)(F)F)cc32)CC1 [ICI-00738]	15%	1.06 ×10⁻⁶ cm/s	40%	3.33 ×10⁻⁶ cm/s	3.1	Low (A-B Papp > 3.0 and Efflux Ratio > 10: Low)	
CNCC(=O)NCCN1CCN(CCCN2c3ccccc3Sc3ccc(C(F)(F)F)cc32)CC1 [ICI-00758]	59%	0.21 ×10⁻⁶ cm/s	41%	24.9 ×10⁻⁶ cm/s	116	Low (A-B Papp > 3.0 and Efflux Ratio > 10: Low)	
NCCCN1CCN(CCCN2c3ccccc3Sc3ccc(C(F)(F)F)cc32)CC1 [ICI-00760]	46%	<0.25 ×10⁻⁶ cm/s	40%	18.8 ×10⁻⁶ cm/s	>75	Low (A-B Papp > 3.0 and Efflux Ratio > 10: Low)	
NCC(N)C(=O)NCCN1CCN(CCCN2c3ccccc3Sc3ccc(C(F)(F)F)cc32)CC1 (stereo not shown) [ICI-761]							ability to inhibit proliferation of RPMI cells (RPMI 8226): able to inhibit
NCC(=O)NCCCN1CCN(CCCN2c3ccccc3Sc3ccc(C(F)(F)F)cc32)CC1 [ICI-00822]	61%	0.13 ×10⁻⁶ cm/s	22%	15.7 ×10⁻⁶ cm/s	119	Low (A-B Papp > 3.0 and Efflux Ratio > 10: Low)	
CNCC(=O)NCCCN1CCN(CCCN2c3ccccc3Sc3ccc(C(F)(F)F)cc32)CC1 [ICI-00823]	57%	<0.24 ×10⁻⁶ cm/s	46%	19.4 ×10⁻⁶ cm/s	>80	Low (A-B Papp > 3.0 and Efflux Ratio > 10: Low)	
FC(F)(F)c1ccc2c(c1)N(CCCC1CCNCC1)c1ccccc1S2 [ICI-00824]	11%	1.77 ×10⁻⁶ cm/s	21%	13.8 ×10⁻⁶ cm/s	7.8	Low (A-B Papp > 3.0 and Efflux Ratio > 10: Low)	
NCCN1CCC(CCCN2c3ccccc3Sc3ccc(C(F)(F)F)cc32)CC1 [ICI-00846]	3%	<0.36 ×10⁻⁶ cm/s	1%	<0.49 ×10⁻⁶ cm/s		Low (A-B Papp > 3.0 and Efflux Ratio > 10: Low)	
NCCCN1CCC(CCCN2c3ccccc3Sc3ccc(C(F)(F)F)cc32)CC1 [ICI-00847]	9%	0.56 ×10⁻⁶ cm/s	31%	9.56 ×10⁻⁶ cm/s	17	Low (A-B Papp > 3.0 and Efflux Ratio > 10: Low)	ability to inhibit proliferation of RPMI cells (RPMI 8226; listed as ICI-847): able to inhibit; also recorded: active
NCC(=O)NCCN1CCC(CCCN2c3ccccc3Sc3ccc(C(F)(F)F)cc32)CC1 [ICI-00848]	22%	0.24 ×10⁻⁶ cm/s	21%	15.5 ×10⁻⁶ cm/s	64	Low (A-B Papp > 3.0 and Efflux Ratio > 10: Low)	ability to inhibit proliferation of RPMI cells (RPMI 8226): able to inhibit
CNCC(=O)NCCN1CCC(CCCN2c3ccccc3Sc3ccc(C(F)(F)F)cc32)CC1 [ICI-00849]	11%	<1 ×10⁻⁶ cm/s	26%	5.1 ×10⁻⁶ cm/s	>5.1	Low (A-B Papp > 3.0 and Efflux Ratio > 10: Low)	ability to inhibit proliferation of RPMI cells (RPMI 8226): able to inhibit
CC(=O)NCCN1CCC(CCCN2c3ccccc3Sc3ccc(C(F)(F)F)cc32)CC1 [ICI-00850]	11%	0.94 ×10⁻⁶ cm/s	9%	4.94 ×10⁻⁶ cm/s	5.3	Low (A-B Papp > 3.0 and Efflux Ratio > 10: Low)	
FC(F)(F)c1ccc2c(c1)N(CCCCN1CCNCC1)c1ccccc1S2 [ICI-00890]	15%	0.75 ×10⁻⁶ cm/s	29%	8.6 ×10⁻⁶ cm/s	11	Low (A-B Papp > 3.0 and Efflux Ratio > 10: Low)	
N#Cc1ccc2c(c1)N(CCCN1CCN(CCN)CC1)c1ccccc1S2 [ICI-00894]	56%	0.22 ×10⁻⁶ cm/s	56%	30 ×10⁻⁶ cm/s	136	Low (A-B Papp > 3.0 and Efflux Ratio > 10: Low)	
OCCN1CCN(CCCN2c3ccccc3Sc3ccc(C(F)(F)F)cc32)CC1 [ICI-01175, Fluphenazine, reference compound]						High (A-B Papp > 3.0 and Efflux Ratio < 3.0: High)	Papp A→B ([1]; A-B direction): 8.7 ×10⁻⁶ cm/s; recovery ([1]; A-B direction, read-out: % Recovery A-B): 24%; Papp B→A ([1]; B-A direction): 9.63 ×10⁻⁶ cm/s; recovery ([1]; B-A direction, read-out: % Recovery B-A): 43%; efflux ratio ([1]; efflux ratio): 1.1
CN(C)CCCN1CCC(CCCN2c3ccccc3Sc3ccc(C(F)(F)F)cc32)CC1 [ICI-01505]	3%	<0.36 ×10⁻⁶ cm/s	26%	0.64 ×10⁻⁶ cm/s	>1.8	Low (A-B Papp > 3.0 and Efflux Ratio > 10: Low)	
CC(C)NCC(O)c1ccc(O)c(O)c1 (stereo not shown) [isoproterenol, reference compound]							relaxation of maximally contracted airway smooth muscle (human small airway; in the presence of 30 μM CCh, isoproterenol 10 μM): comparable degree of relaxation
